Read-outs that look alike come from different tables or passages of the source.

For assay [1], the system named is Candida albicans (American Type Culture Collection strain 10231). Put plainly: Control of Candida albicans infection in mice. The settings on record: 10 mg/kg, mortality over 10 days. The class given is in vivo. The procedure:
Compound 1 (6-(4-chlorophenyl)-2-(2′-pentynyl)pyridazinone, described as compound 109 in European Patent Publication No. EP 478 195 A1) in 5% dimethylsulfoxide (DMSO) in saline solution was administered intraperitoneally 1 h before and at 4, 24, 48 and 72 h after intravenous inoculation with Candida albicans (American Type Culture Collection strain 10231). Ten mice were used for each treatment. Mortality was recorded over a period of 10 days.

The subject of assay [2] is Saccharomyces cerevisiae (strain X2180-1A). Put plainly: Effect of fatty acids on fungitoxicity (growth inhibition, absorbance at 700 nm). The assay is classed as cell-based. The settings on record: 22 h. The procedure: Fifty ml of YPG culture medium (10 g yeast extract, 20 g peptone, and 20 g glucose per liter of water) in a 250 ml Erlenmeyer flask was inoculated with Saccharomyces cereviae (strain X2180-1A) to give an absorbance at 700 nm of 0.02. This culture was incubated for 18 h at 30° C. with shaking at 225 rpm. The cells were harvested by centrifugation, washed once with SD medium (6.7 g Bacto-yeast nitrogen base and 20 g glucose per liter of water), and suspended in SD medium to give an Absorbance at 700 nm of 0.04. Aliquots (5 ml) of cell suspension were distributed in 20 ml capacity glass vials. Treatments containing compound 1 or cerulenin received 25 μl of a solution of compound in dimethylsulfoxide (DMSO) at 240 ppm or 160 ppm, respectively. Control treatments without compound 1 or cerulenin received 25 ul DMSO. Treatments containing a fatty acid received 25 μl of a 2 mM solution of the fatty acid in a 1% solution of Triton X-100 providing a concentration of 10 μM. Treatments without fatty acid received 25 ul of 1% Triton X-100. All treatments were carried out in duplicate. Vials were incubated for 22 h at 30° C. with shaking at 225 rpm. Growth of the cells was then estimated by diluting the cells in each treatment 3-fold with SD medium and measuring the asorbance at 700 nm. The results in Table 3 show inhibition of growth expressed as a percentage of growth in DMSO controls containing Triton X-100 but lacking Compound 1, cerulenin or fatty acid.

On to `C[C@@H]1[C@H](O)[C@@H](C)/C=C/C=C/C=C/C=C/C=C/C=C/C=C/[C@H](O[C@@H]2O[C@H](C)[C@@H](O)[C@H](N)[C@@H]2O)C[C@@H]2O[C@](O)(C[C@@H](O)C[C@@H](O)[C@H](O)CC[C@@H](O)C[C@@H](O)CC(=O)O[C@H]1C)C[C@H](O)[C@H]2C(=O)O` [Amphotericin B, reference compound], for which the “% Survival” value in assay [1] came out at 100%.
`C/C=C/C/C=C/CCC(=O)[C@H]1O[C@H]1C(N)=O` [Cerulenin, cerulenin, reference compound]: the inhibition (in general, the relative decrease from the control value, in per cent) at 0.8 ppm in assay [2] (read-out: % Inhibition of growth, 0.8 ppm, no fatty acid, 22 h) turned out to be 35.6%; in assay [2] (read-out: % Inhibition of growth, 0.8 ppm, oleic acid 10 μM, 22 h), 3.3%; in assay [2] (read-out: % Inhibition of growth, 0.8 ppm, palmitic acid 10 μM, 22 h) it was 15.2%; in assay [2] (read-out: % Inhibition of growth, 0.8 ppm, palmitoleic acid 10 μM, 22 h) it was 4.5%; in assay [2] (read-out: % Inhibition of growth, 0.8 ppm, pentadecanoic acid 10 μM, 22 h), 20.3%.

Values taken from patent publication US20050095663A1, “Process for screening fungitoxic compounds” (priority 2002, published 2005).
